In patent US10058550B2, “Methods of treating heart failure” (priority 2015, dated 2018):

Biological target: human APJ receptor (Homo sapiens (Human), UniProt P35414)
Experiment: biochemical
Format: biochemical
Conditions: read-out: Activity hAPJ SPA EC50 IP
Summary of the method: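 Membranes from CHO cells stably expressing cloned human APJ were incubated with WGA SPA beads in 20 mM HEPES pH 7.5, 5 mM MgCl2, 0.1% BSA, 200 mM NaCl and 3 μM GDP. Reaction started with 0.2 nM [35S]GTPγS ± ligands, 90 min at RT. EC50 obtained by non-linear regression as mean of independent experiments.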

Sequence of human APJ receptor (P35414 whole entry): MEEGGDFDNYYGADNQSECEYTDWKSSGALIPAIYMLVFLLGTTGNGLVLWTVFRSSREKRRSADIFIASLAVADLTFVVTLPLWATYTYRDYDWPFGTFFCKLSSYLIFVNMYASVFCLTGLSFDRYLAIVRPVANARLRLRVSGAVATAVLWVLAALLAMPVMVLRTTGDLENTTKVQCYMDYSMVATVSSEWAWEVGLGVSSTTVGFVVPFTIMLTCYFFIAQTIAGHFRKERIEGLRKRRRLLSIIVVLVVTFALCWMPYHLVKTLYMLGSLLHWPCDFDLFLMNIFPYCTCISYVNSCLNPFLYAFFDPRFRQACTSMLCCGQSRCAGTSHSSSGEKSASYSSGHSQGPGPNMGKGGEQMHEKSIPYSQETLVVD

COc1cccc(OC)c1-n1c(NS(=O)(=O)[C@@H](C)[C@H](C)c2ncc(F)cn2)nnc1-c1cccc(OCC(C)(C)O)n1 [Example 192.0, (2S,3R)-N-(4-(2,6-dimethoxyphenyl)-5-(6-(2-hydroxy-2-methylpropoxy)pyridin-2-yl)-4H-1,2,4-triazol-3-yl)-3-(5-fluoropyrimidin-2-yl)butane-2-sulfonamide]
EC50: 260 nM

COc1cccc(OC)c1-n1c(NS(=O)(=O)[C@@H](C)[C@H](OC)c2ncc(C)cn2)nnc1-c1cccc(OCC(C)(C)O)n1 [Example 193.0, (1R,2S)-N-(4-(2,6-dimethoxyphenyl)-5-(6-(2-hydroxy-2-methylpropoxy)pyridin-2-yl)-4H-1,2,4-triazol-3-yl)-1-methoxy-1-(5-methylpyrimidin-2-yl)propane-2-sulfonamide]
EC50: 61 nM

COc1cccc(OC)c1-n1c(NS(=O)(=O)[C@@H](C)[C@H](C)c2ncc(F)cn2)nnc1-c1cccc(OCC(O)(C(F)(F)F)C(F)(F)F)n1 [Example 194.0, (2S,3R)-N-(4-(2,6-dimethoxyphenyl)-5-(6-(3,3,3-trifluoro-2-hydroxy-2-(trifluoromethyl)propoxy)pyridin-2-yl)-4H-1,2,4-triazol-3-yl)-3-(5-fluoropyrimidin-2-yl)butane-2-sulfonamide]
EC50: 36 nM

CNc1cccc(-c2nnc(NS(=O)(=O)[C@@H](C)[C@H](OC)c3ncc(C)cn3)n2-c2c(OC)cccc2OC)n1 [Example 195.0, (1R,2S)-N-(4-(2,6-dimethoxyphenyl)-5-(6-(methylamino)pyridin-2-yl)-4H-1,2,4-triazol-3-yl)-1-methoxy-1-(5-methylpyrimidin-2-yl)propane-2-sulfonamide]
EC50: 0.35 nM

COCCOc1cccc(-c2nnc(NS(=O)(=O)[C@@H](C)[C@H](OC)c3ncc(C)cn3)n2-c2c(OC)cccc2OC)n1 [Example 196.0, (1R,2S)-N-(4-(2,6-dimethoxyphenyl)-5-(6-(2-methoxyethoxy)pyridin-2-yl)-4H-1,2,4-triazol-3-yl)-1-methoxy-1-(5-methylpyrimidin-2-yl)propane-2-sulfonamide]
EC50: 3.4 nM

COc1cccc(OC)c1-n1c(NS(=O)(=O)[C@@H](C)[C@H](OC)c2ncc(C)cn2)nnc1-c1cccc(N(C)C)n1 [Example 197.0, (1R,2S)-N-(4-(2,6-dimethoxyphenyl)-5-(6-(dimethylamino)pyridin-2-yl)-4H-1,2,4-triazol-3-yl)-1-methoxy-1-(5-methylpyrimidin-2-yl)propane-2-sulfonamide]
EC50: 0.21 nM

COc1cccc(OC)c1-n1c(NS(=O)(=O)[C@@H](C)[C@H](C)c2cnc(C)cn2)nnc1-c1cccnc1 [Example 198.0, (2S,3R)-N-(4-(2,6-dimethoxyphenyl)-5-(pyridin-3-yl)-4H-1,2,4-triazol-3-yl)-3-(5-methylpyrazin-2-yl)butane-2-sulfonamide]
EC50: 1.1 nM

COc1cccc(-c2nnc(NS(=O)(=O)CCc3ccc(F)cc3C#N)n2-c2c(OC)cccc2OC)n1 [Example 200.0, 2-(2-cyano-4-fluorophenyl)-N-(4-(2,6-dimethoxyphenyl)-5-(6-methoxy-2-pyridinyl)-4H-1,2,4-triazol-3-yl)ethanesulfonamide]
EC50: 0.57 nM

COc1cccc(OC)c1-n1c(NS(=O)(=O)CCN2C(=O)N(C)CC[C@@H]2C)nnc1-c1cncc(C)c1 [Example 201.0, N-(4-(2,6-dimethoxyphenyl)-5-(5-methyl-3-pyridinyl)-4H-1,2,4-triazol-3-yl)-2-((6S)-3,6-dimethyl-2-oxotetrahydro-1(2H)-pyrimidinyl)ethanesulfonamide]
EC50: 2.5 nM

COc1cccc(-c2nnc(NS(=O)(=O)CCc3ccc(F)cc3C#N)n2-c2c(OC)ncnc2OC)n1 [Example 204.0, 2-(2-cyano-4-fluorophenyl)-N-(4-(4,6-dimethoxy-5-pyrimidinyl)-5-(6-methoxy-2-pyridinyl)-4H-1,2,4-triazol-3-yl)ethanesulfonamide]
EC50: 1.5 nM
